According to patent US8530508B2, “Thrombopoietin receptor agonist (TpoRA) kills acute human myeloid leukemia cells” (GlaxoSmithKline LLC, priority 2007, dated 2013):

How the values were obtained:
[1] = tested on: STAT5, ERK, p70S6, S6 ribosomal protein in human progenitor cells CD34+; test: Western blot analysis of kinase phosphorylation in CD34+ cells; format: cell-based; settings: rhTPO 2.8 μM or Compound A 5 μM
Procedure: (§1) Controls and cells stimulated with rhTPO or Compound A were washed twice in PBS, then pelleted. The pellet was dissolved in triple-lysis buffer comprised of 50 mM TRIS, 150 mM NaCl, 0.02% sodium azide, 0.1% sodium dodecyl sulphate (SDS) and 1% Igepal (Sigma, St. Louis, Mo.), and then incubated for 30 min on ice with vortexing every 10 min. The lysate was then spun at maximum speed in a microcentrifuge at 4° C. for 10 min. The extracted cell supernatant was used for Western-blot analysis.
(§2) Protein concentration was determined by a Bradford protein assay (Bio-Rad, Hercules, Calif.). A total of 150 μg protein extract was resolved on a 10% polyacrylamide gel (150V, 60 min.) then transferred to a poly vinylidene fluoride (PVDF) membrane (25V, 60 min). Condensed milk (5%) was used as a blocking solution. The membrane was incubated overnight at 4° C. with primary antibody at a 1:1000 dilution. After incubation, the membrane was washed three times in TBS-T buffer and probed with secondary HRP-conjugated antibody (Amersham Biosciences; Piscataway, N.J.) at dilution 1:1000 for 2 hour at room temperature. All antibodies were purchased from Cell Signaling Technology (Danvers, Mass.).
The effect of Compound A on phosphorylation of kinases known to be important in the Tpo signaling pathway was examined. Kinases evaluated include STAT5, ERK, p70S6, and ribosomal kinase S6. […] The same experiment was performed on human progenitor cells CD34+, which are stimulated by Compound A to differentiate into the megakaryocytes.

CD34+ cells = test: Liquid culture of human progenitor cells (polyploidization, CD41/CD61 expression); format: cell-based; settings: CD34+ cells in cytokines, 7-10 days
Procedure: Normal human progenitor cells (CD34+) were used to evaluate capability of Compound A to stimulate proliferation and differentiation of megakaryocytes. CD34+ cells were plated in fibrin clots and cultured for 10 days, after which time colonies were fixed and stained with antibody specific for megakaryocytic marker CD41. […] CD34+ cells were incubated in cytokines with rhTPO or Compound A for periods of 7-10 days, after which time cells in culture were examined for degree of polyploidization, and expression of megakaryocyte lineage markers CD41 and CD61.

[2] = tested on: cells obtained from AML patients; test: Rescue proliferation assay: rhTPO plus Compound A on AML cells; format: cell-based, human
Procedure: Proliferation assays were performed on cells obtained from 6 AML patients. In some experiments, cells were first exposed to Compound A and then stimulated with rhTPO five minutes later. To avoid the possibility of all receptors being occupied by Compound A and therefore preventing rhTPO from binding, other experiments were also performed by first stimulating the cells with rhTPO followed by exposure to Compound A 5 minutes later.

[3] = tested on: primary cells from patients with chronic myelogenous leukemia (CML); test: Proliferation of primary CML cells; format: cell-based, human; settings: CML patient samples
Procedure: (§3) Human primary leukemia cells were obtained from Stem Cell and Leukemia Core at the University of Pennsylvania. Cells were cultured in EGM-2 (Endothelial Cell Medium-2, Cambrex; East Rutherford, N.J.). All cells were cultured in humidified incubator at 37° C. and 5% CO2.
(§4) Samples were obtained from 18 patients with acute myelogenous leukemia (AML), 7 patients with acute lymphocytic leukemia (ALL) and 3 patients with chronic myelogenous leukemia (CML). In 17 out of 18 tested AML samples, Compound A inhibited cell proliferation 70-90% when compared to untreated controls or cells cultured with rhTPO (FIG. 2A).

[4] = tested on: STAT5, ERK, p70S6, ribosomal kinase S6 in N2C-TPO cells; test: Western blot analysis of kinase phosphorylation in N2C-TPO cells; format: cell-based; settings: 10 or 30 minutes
Procedure: as §1, §2
The effect of Compound A on phosphorylation of kinases known to be important in the Tpo signaling pathway was examined. Kinases evaluated include STAT5, ERK, p70S6, and ribosomal kinase S6. […]

[5] = tested on: primary leukemia cells from patients with acute myelogenous leukemia (AML); test: Proliferation of primary AML cells; format: cell-based, human
Procedure: as §3, §4
Further the effect of various doses of Compound A (1 μM, 2.5 μM and 5 μM) on AML samples was examined. This experiment was performed on 6 different samples. […] In the remaining 3 samples, doses of 1 μM and 2.5 μM Compound A had no effect on cell proliferation and survival.

[6] = tested on: primary cells from AML patient 774; test: Annexin V / propidium iodide apoptosis assay, primary AML cells; format: cell-based, human; settings: AML patient 774, 72 hours; vs control and Tpo+DMSO
Source text: (§5) Annexin-V is a phospholipid binding protein with a high affinity for phosphatidylserine (PS). Annexin V will not bind normal, intact cells, but necrotic cells are leaky enough to give Annexin V access to inner membrane PS. Propidium iodide stains DNA. The assay therefore identifies cells undergoing apoptosis.
(§6) Primary cells were isolated from either an AML (patient 774; top row) or ALL (patient 710; bottom row) patient. The cells were then exposed to either control solution (left pair of panels), rhTpo+DMSO (middle pair of panels), or SB559457 (right pair of panels) for 72 hours.

[7] = tested on: primary cells from patients with acute lymphocytic leukemia (ALL); test: Proliferation of primary ALL cells; format: cell-based, human; settings: ALL patient samples
Procedure: as §3, §4

[8] = tested on: GAPDH and Redd1 mRNA in primary AML cells; test: Quantitative real time PCR of GAPDH and Redd1 in primary AML cells; format: cell-based, human; settings: primary AML samples, 6 hours, QRT-PCR
[9] = tested on: p70S6 kinase and ribosomal kinase S6 in primary AML cells; test: Western blot of p70S6 and S6 kinase phosphorylation in primary AML cells; format: cell-based, human; settings: primary AML samples, 3 hours; SB559457 5 μM, Tpo 2.86 μM
Procedure: as §1, §2
In an effort to establish a correlation between cell signaling and array data, phosphorylation of kinases involved in Tpo signaling pathway in primary leukemia cells was examined. […]

[10] = tested on: STAT5, ERK, p70S6 kinases and S6 ribosomal protein in N2C-TPO cells; test: Rescue of kinase phosphorylation in N2C-TPO cells (rhTPO plus Compound A); format: cell-based; settings: rhTPO first then Compound A, or the reverse
Procedure: as §1, §2
In an effort to address these possibilities, similar rescue experiments were performed on N2C-TPO cells while evaluating phosphorylation of kinases involved in TPO pathway.

human CD34+ cells = test: Megakaryocyte colony forming assay; format: cell-based; settings: Compound A 5 μM vs rhTPO 100 ng/ml; fibrin clots, 10 days, CD41 stain
Procedure: Normal human progenitor cells were plated in fibrinogen clots at a density of 5000 CD34+ cells per ml. Fibrinogen clots were prepared as follow: cells were re-suspended in IMDM medium supplemented with sodium bicarbonate (3 mg/ml); 3-mercapto-1-2propanediol (0.002%); transferring (300 μg/ml); CaCl2(37 μg/ml); fatty acid free, deionized BSA (10%); insulin (20 μg/ml); cholesterol (5.6 μg/ml) cytokines: IL-3 (10 ng/ml), SCF (10 ng/ml) and rhTPO (100 ng/ml equal 2.8 μM) or Compound A (5 μM). Then clotting mix containing fibrinogen (0.2%) and thrombin (0.2 u/ml). Cells were plated on 35 mm culture dishes and cultured in humidified incubator at 37° C. and 5% CO2. After 10 days, colonies were fixed and stained for megakaryocyte marker CD41a with fluorescently labeled antibody. Megakaryocyte colonies were counted using inverted fluorescent microscope.
Normal human progenitor cells (CD34+) were used to evaluate capability of Compound A to stimulate proliferation and differentiation of megakaryocytes. CD34+ cells were plated in fibrin clots and cultured for 10 days, after which time colonies were fixed and stained with antibody specific for megakaryocytic marker CD41. […]

N2C-TPO cells = test: Proliferation of TPO dependent cell line N2C-TPO; format: cell-based
Procedure: N2C-TPO cells were derived by culture of a megakaryblastic cell line in rhTpo for 10 weeks and provided by Glaxo SmithKline Pharmaceuticals (Collegeville, Pa.). N2C-TPO cells were cultured in RPMI (Invitrogen, Carlsbad, Calif.) medium supplemented with 10% Animal Serum Complex—Fetalplex (Gemini Bio-Products, West Sacramento, Calif.), 0.5% Penicillin/Streptomycin (Invitrogen; Carlsbad, Calif.) and 20 ng/ml rhTPO.
In order to determine if Compound A has the ability to function as a thrombopoietin receptor (TpoR) agonist and stimulate proliferation and differentiation of human megakaryocytes, a number of cell culture experiments were performed using the Tpo dependent cell line (N2C-TPO) as well as normal human CD34+ cells. […] Consequently the 5 μM dose was used in further experiments where properties of rhTPO versus Compound A were directly compared.

[11] = tested on: primary cells from ALL patient 710; test: Annexin V / propidium iodide apoptosis assay, primary ALL cells; format: cell-based, human; settings: ALL patient 710, 72 hours
Source text: as §5, §6

Compound | ERK, p70S6 and S6 ribosomal protein phosphorylation [1] | phosphorylation of STAT5 [1] | cells expressing megakaryocyte markers CD41 and CD61 (CD34+ cells) [%] | cells with greater than 4N DNA content (CD34+ cells) [%] | rescue of AML cell survival by rhTPO ([2]; samples 794 and 332, rhTPO added with Compound A) | rescue of AML cell survival by rhTPO ([2]; samples 857, 774, 759, 342, rhTPO added 5 minutes before or after Compound A) | effect on cell proliferation / growth or viability [3] | phosphorylation of STAT5, ERK, p70S6 and ribosomal kinase S6 [4] | effect on cell proliferation and survival ([5]; 1 μM and 2.5 μM, remaining 3 of 6 AML samples) | leukemia cell growth and proliferation ([5]; 5 μM, remaining 3 of 6 AML samples) | effect on cell proliferation ([5]; 1 and 2.5 μM, 3 of 6 AML samples) | inhibition of cell proliferation ([5]; 17 out of 18 AML samples, vs untreated controls or cells cultured with rhTPO) | Annexin V and PI positive cells (apoptosis) [6] | effect on cell proliferation / growth or viability [7] | expression of GAPDH relative to cells treated with rhTpo [8] | phosphorylation of p70S6 kinase at Thr421/Ser424 and ribosomal kinase S6 [9] | phosphorylation of STAT5, ERK, p70S6 kinases and S6 ribosomal protein with rhTPO plus Compound A [10] | number of megakaryocyte colonies compared to rhTPO (human CD34+ cells) | concentration of maximal effects on cell proliferation (N2C-TPO cells) [µM] | cellular apoptosis [11]
CC1=NN(c2ccc(C)c(C)c2)C(=O)/C1=N\Nc1cc(F)cc(-c2cccc(C(=O)O)c2)c1O [Compound A, 3′-{N′-[1-(3,4-dimethylphenyl)-3-methyl-5-oxo-1,5-dihydropyrazol-4-ylidene]hydrazine}-5′-fluoro-2′-hydroxybiphenyl-3-carboxylic acid] | activation | only cells exposed to rhTPO | 35 | 14 | adding rhTPO did attenuate the Compound A effect | not rescued | No significant effects | none of those kineses were activated | no effect | inhibited leukemia cell growth and proliferation | had an effect on cell proliferation | 70-90% | increase in Annexin V and PI positive cells | No significant effects | at least two times higher | high phosphorylation | rescue of phosphorylation | slightly lower | 5 to 10 | No significant increases in cellular apoptosis
rhTPO: Full length recombinant human thrombopoietin (rhTPO) obtained from R&D Systems | activation | stimulated phosphorylation of STAT5 | – | 8 | – | – | – | high phosphorylation level | – | – | – | – | – | – | – | none or very little phosphorylation | – | – | – | –
